Source: ChEMBL document CHEMBL1135808, “A new type of mixed anhydride and its applications to the synthesis of 7-substituted 8-chloro-5,5-dioxoimidazo[1,2-b][1,4,2]benzodithiazines with in vitro antitumor activity” (2002)
Calls of active or inactive are those of the source. No cut-off for these calls is given here.

Legend:
Tumor Cell line [1] = assay: Log of molar concentration leading to 50% cell death was reported; Inactive; type: functional, cell-based; details: Homo sapiens
Tumor Cell line [2] = assay: In vitro total growth inhibition for 50 cell lines was reported as log of molar concentration; Inactive; type: functional, cell-based; details: Homo sapiens
Tumor Cell line [3] = assay: In vitro inhibition of 50% cell growth was reported as log of molar concentration for 54 cell lines; Inactive; type: functional, cell-based; details: Homo sapiens
Tumor Cell line [4] = assay: Log of molar concentration leading to 50% cell death was reported; type: functional; details: Homo sapiens, read-out: Log LC50 (the source's name) (converted)
Tumor Cell line [5] = assay: In vitro total growth inhibition for 50 cell lines was reported as log of molar concentration; type: functional, Homo sapiens
Tumor Cell line [6] = assay: In vitro inhibition of 50% cell growth was reported as log of molar concentration for 46 cell lines.; type: functional; details: Homo sapiens
Tumor Cell line [7] = assay: Log of molar concentration leading to 50% cell death was reported for 50 cell lines; type: functional; details: Homo sapiens, read-out: Log LC50 (the source's name) (converted)
Tumor Cell line [8] = assay: In vitro inhibition of 50% cell growth was reported as log of molar concentration for 56 cell lines.; type: functional; details: Homo sapiens
Tumor Cell line [9] = assay: In vitro inhibition of 50% cell growth was reported as log of molar concentration for 54 cell lines.; type: functional; details: Homo sapiens
Tumor Cell line [10] = assay: In vitro inhibition of 50% cell growth was reported as log of molar concentration for 57 cell lines.; type: functional; details: Homo sapiens
Tumor Cell line [11] = assay: In vitro inhibition of 50% cell growth was reported as log of molar concentration for 58 cell lines.; type: functional; details: Homo sapiens
Tumor Cell line [12] = assay: In vitro inhibition of 50% cell growth was reported as log of molar concentration for 50 cell lines.; type: functional; details: Homo sapiens

Compound	IA (Tumor Cell line [1])	IA (Tumor Cell line [2])	IA (Tumor Cell line [3])	CC50 (Tumor Cell line [4]) [µM]	Log GTI (Tumor Cell line [5])	further results
O=C(Oc1c(-c2ccccc2)oc2ccccc2c1=O)c1cc2c(cc1Cl)Sc1nccn1S2(=O)=O	inactive	inactive	inactive			
O=C(Nc1ccc2scnc2c1)c1cc2c(cc1Cl)Sc1nccn1S2(=O)=O	inactive	inactive	inactive			
O=c1c2ccccc2nc(-c2cc3c(cc2Cl)Sc2nccn2S3(=O)=O)n1-c1ccccc1				85.1	-4.07	GI50 (Tumor Cell line [6]): 89.1 µM
O=C(Nc1cccc2cnccc12)c1cc2c(cc1Cl)Sc1nccn1S2(=O)=O					-4.04	CC50 (Tumor Cell line [7]): 100 µM; GI50 (Tumor Cell line [8]): 39.8 µM
Cc1ccnc(NC(=O)c2cc3c(cc2Cl)Sc2nccn2S3(=O)=O)c1	inactive	inactive	inactive			
Cc1cccnc1NC(=O)c1cc2c(cc1Cl)Sc1nccn1S2(=O)=O	inactive	inactive	inactive			
O=C1c2ccccc2/N=C(/c2cc3c(cc2Cl)Sc2nccn2S3(=O)=O)OS(=O)(=O)N1c1ccccc1				91.2	-4.04	GI50 (Tumor Cell line [9]): 81.3 µM
O=C(c1cc2c(cc1Cl)Sc1nccn1S2(=O)=O)N1c2ccccc2C=Cc2ccccc21	inactive	inactive	inactive			
O=C(Nc1ccccc1C(=O)Nc1ccccc1)c1cc2c(cc1Cl)Sc1nccn1S2(=O)=O	inactive	inactive	inactive			
Cc1ccc2cc(NC(=O)c3cc4c(cc3Cl)Sc3nccn3S4(=O)=O)ccc2n1				100	-4.06	GI50 (Tumor Cell line [10]): 33.9 µM
O=C(Nc1ccccn1)c1cc2c(cc1Cl)Sc1nccn1S2(=O)=O				58.9	-4.02	GI50 (Tumor Cell line [11]): 70.8 µM
O=C(Nc1ccc2cc3ccccc3cc2c1)c1cc2c(cc1Cl)Sc1nccn1S2(=O)=O					-4.52	GI50 (Tumor Cell line [12]): 87.1 µM
